Measurements reported in US12129312B2, “Peptide compound, application thereof and composition containing same” (priority 2017, dated 2024).
Read-outs that look alike come from different tables or passages of the source. Numbered stars: 1 amine (or outer) side, 2 acyl side, 3 side chain; on linkers, the order of the positions; unused ones are H or OH. Square brackets hold non-standard residues; d marks the D form. Peptide text beside a SMILES is read from it. * marks the point of attachment. Pro(trans-4-Ph) = O=C(O)[C@@H]1C[C@@H](c2ccccc2)CN1; Phenylacetyl(4-Ph) = O=C(Cc1ccc(-c2ccccc2)cc1)*; Benzoyl(4-CF3) = O=C(c1ccc(C(F)(F)F)cc1)*; PEG8 = NCCOCCOCCOCCOCCOCCOCCOCCOCCC(=O)O; X6 = CCCN([C@@H](CC(C)C)C(=O)[*:2])[*:1]; 1Nal = N[C@@H](Cc1cccc2ccccc12)C(=O)O; 2Nal = N[C@@H](Cc1ccc2ccccc2c1)C(=O)O; Pentanoyl(5-Ph) = O=C(CCCCc1ccccc1)*; dNMeY = CN[C@H](Cc1ccc(O)cc1)C(=O)O; NMeF = CN[C@@H](Cc1ccccc1)C(=O)O; Tic = O=C(O)[C@@H]1Cc2ccccc2CN1; NMeL = CN[C@@H](CC(C)C)C(=O)O; Lauroyl = CCCCCCCCCCCC(=O)*; NMeS = CN[C@@H](CO)C(=O)O; βAla = NCCC(=O)O

Molecular target: T1, human Chemokine like receptor 1 (Homo sapiens, UniProt Q99788)
T1 construct: host or cells: U2OS (Tango CMKLR1-bla U2OS)
T1 sequence (Q99788 1-373): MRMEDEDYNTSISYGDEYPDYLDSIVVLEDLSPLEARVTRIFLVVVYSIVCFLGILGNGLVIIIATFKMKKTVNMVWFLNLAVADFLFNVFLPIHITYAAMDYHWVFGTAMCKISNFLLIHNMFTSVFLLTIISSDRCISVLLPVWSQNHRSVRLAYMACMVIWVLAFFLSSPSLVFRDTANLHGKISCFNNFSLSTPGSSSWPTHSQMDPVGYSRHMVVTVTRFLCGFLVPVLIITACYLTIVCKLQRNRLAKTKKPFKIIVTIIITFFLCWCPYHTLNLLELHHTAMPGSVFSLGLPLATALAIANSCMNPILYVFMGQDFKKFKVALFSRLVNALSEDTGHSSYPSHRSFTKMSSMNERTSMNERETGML
Test: Activation of Tango CMKLR1-bla U2OS cells (beta-lactamase FRET reporter)
Type: cell-based
Description: The polypeptide sequences described above are the polypeptide sequences disclosed in the patent JP2010-229093A of BANYU PHARMA CO LTD: (D-Tyr)-Phe-Leu-Pro-(D-Ser)-Gln-Phe-(D-Ala)-Tic-Ser was used as a positive control (SEQ ID NO: 102).
The activation of the compound on Tango™ CMKLR1-bla U2OS cells (Invitrogen Cat. nos. K1551) was tested.
The activation of each compound in the above experiments on Tango™ CMKLR1-bla U2OS cells was determined as follows:
Day 1: Cell Seeding on Plate
2. The medium was removed, and the cells were washed with DPBS twice, followed by addition of 3 mL of 0.05% trypsin, and placed in a 37° C., 5% CO2 incubator (Thermo Fisher, Waltham, Massachusetts, USA) for 3-5 minutes. After the cells were rounded, 3-5 mL of medium (medium formula: DMEM 90%, Dialyzed FBS 10%, NEAA 0.1 mM, HEPES (pH 7.3) 25 mM, Penicillin 100 U/mL, Streptomycin 100 μg/mL) was added to terminate digestion.
2. The digested cells were transferred to a 15 mL centrifuge tube (430790, Corning), centrifuged at 1000 rpm for 5 minutes (5810R, Eppendorf, Hamburg, Germany), and the supernatant was discarded.
3. 7 mL of medium (DMEM+10% FBS) was added, blowed into a single cell suspension, counted by a cell counter, and adjusted the cell suspension to a desired cell density of 250,000/mL with the medium.
4. The cell suspension was seeded into a 384-well cell plate (Corning 3712) in 40 μL/well to make the number of cells 10000 cells/well, and 32 μL of medium was added to the blank control.
5. The incubation was performed overnight at 37° C. under 5% CO2.
Day 2: Dosing and Testing
1. Preparation of 200× Compound Plate
1.1 The test compound was formulated into a 10 mM working solution in DMSO.
1.2 45 μL of 10 mM test compound was added to the 2nd column of rows A to P in the Echo-384 well plate. The compound was subjected to a 3-fold dilution with Precision (30 μL of DMSO was added to the 3rd to 11th columns; 15 μL of the drug solution was pipetted from the 2nd column to the 3rd column, blown and evenly mixed; then 15 μL of the drug solution was pipetted from the 3rd column to the 4th column, blown and evenly mixed; the drugs was subjected to a 3-fold dilution to obtain 10 concentrations in total). The 1st and 12th columns of the Echo-384 well plate were supplemented with 30 μL of DMSO.
2. Preparation of Intermediate Plate
500 nL, i.e., 0.5 μL of the diluted compound (or DMSO) in the 200× compound plate was transferred into the corresponding position of V-bottom 384-well plate with Echo. 20 μL of medium was added to each well, centrifuged, shaken and evenly mixed. The concentration of the drugs in each well of the 2nd to 11th column of intermediate plate (i.e., 5× compound plate) were shown in following Table 4.
3.1 The cell plate was taken out from the incubator and observed under a microscope. The diluted compound or DMSO in the intermediate plate was added to the cell plate in 10 μL/well in the corresponding cell plate, and 40 μL of medium was pre-filled in each well.
3.2 The cells were incubated at 37° C. under 5% CO2 for 4 hours.
4.1 1 mM CCF4-AM, solution B, Solution C, and Solution D were used to prepare an appropriate amount of 6× detection solution. The LiveBLAzer™-FRET B/G Loading kit (K1095, Thermo Fisher, Waltham, Massachusetts, USA) kit containing CCF-4AM and solutionB, solutionC, and solutionD was also purchased from invitrogen (K1157, Thermo Fisher, Waltham, Massachusetts, USA).
4.2 The cells were observed under a microscope and the cell plate was equilibrated to room temperature.
4.3 6 μL of CCF-4AM dissolved solution A, 60 μL of solution B, 904 μL of solution C and 30 μL of solution D were pipetted in an EP tube, blown, and evenly mixed to obtain a 6× detection solution. The prepared 6× detection solution was pipetted to a 384-well plate in 10 μL/well.

[1] = determination by the method of Effect Embodiment 1, read-out: EC50

SMILES	EC50 [1]	EC50
CC(C)C[C@@H](C(=O)N1CCC[C@H]1C(=O)N[C@H](CO)C(=O)N[C@@H](CCC(N)=O)C(=O)N[C@@H](Cc1ccc2ccccc2c1)C(=O)N[C@H](C)C(=O)N1Cc2ccccc2C[C@H]1C(=O)N[C@@H](CO)C(=O)O)N(C)C(=O)[C@H](Cc1ccccc1)NC(=O)[C@H](N)Cc1ccc(O)cc1 [YW-164, (D-Tyr)-Phe-(NMe-Leu)-Pro-(D-Ser)-Gln-2Nal-(D-Ala)-Tic-Ser-OH] (H-[dY]F[NMeL]P[dS]Q[2Nal][dA][Tic]S-OH)		1.1 nM
CC(C)C[C@@H](C(=O)N1CCC[C@H]1C(=O)N[C@@H](C(=O)N[C@@H](CCC(N)=O)C(=O)N[C@@H](Cc1ccccc1)C(=O)N[C@H](C)C(=O)N1Cc2ccccc2C[C@H]1C(=O)N[C@@H](CO)C(=O)O)[C@H](C)O)N(C)C(=O)[C@H](Cc1ccccc1)NC(=O)[C@H](N)Cc1ccc(O)cc1 [YW-204, (D-Tyr)-Phe-(NMe-Leu)-Pro-(D-Thr)-Gln-Phe-(D-Ala)-Tic-Ser] (H-[dY]F[NMeL]P[dT]QF[dA][Tic]S-OH; N-terminus assumed)	62 nM	
CC(C)C[C@H](NC(=O)[C@H](Cc1ccccc1)NC(=O)[C@@H](Cc1ccc(O)cc1)NC(=O)Cc1ccc(-c2ccccc2)cc1)C(=O)N1CCC[C@H]1C(=O)N[C@H](CO)C(=O)N[C@@H](CCC(N)=O)C(=O)N[C@@H](Cc1ccccc1)C(=O)N[C@H](C)C(=O)N1Cc2ccccc2C[C@H]1C(=O)N[C@@H](CO)C(=O)O [YW-77, 4-biphenylacetyl-(D-Tyr)-Phe-Leu-Pro-(D-Ser)-Gln-Phe-(D-Ala)-Tic-Ser-OH] ({Phenylacetyl(4-Ph)}-[dY]FLP[dS]QF[dA][Tic]S-OH)		53 nM
CC(C)C[C@H](NC(=O)[C@H](Cc1ccccc1)NC(=O)[C@@H](Cc1ccc(O)cc1)NC(=O)CCCCc1ccccc1)C(=O)N1CCC[C@H]1C(=O)N[C@H](CO)C(=O)N[C@@H](CCC(N)=O)C(=O)N[C@@H](Cc1ccccc1)C(=O)N[C@H](C)C(=O)N1Cc2ccccc2C[C@H]1C(=O)N[C@@H](CO)C(=O)O [YW-76, 5-phenylvaleroyl-(D-Tyr)-Phe-Leu-Pro-(D-Ser)-Gln-Phe-(D-Ala)-Tic-Ser-OH] ({Pentanoyl(5-Ph)}-[dY]FLP[dS]QF[dA][Tic]S-OH)	43 nM	
CCCN(C(=O)[C@H](Cc1ccccc1)NC(=O)[C@H](N)Cc1ccc(O)cc1)[C@@H](CC(C)C)C(=O)N1CCC[C@H]1C(=O)N[C@H](CO)C(=O)N[C@@H](CCC(N)=O)C(=O)N[C@@H](Cc1ccccc1)C(=O)N[C@H](C)C(=O)N1Cc2ccccc2C[C@H]1C(=O)N[C@@H](CO)C(=O)O [YW-184, (D-Tyr)-Phe-(NPr-Leu)-Pro-(D-Ser)-Gln-Phe-(D-Ala)-Tic-Ser] (H-[dY]F[X6]P[dS]QF[dA][Tic]S-OH)	16 nM	
CC(C)C[C@H](NC(=O)[C@H](Cc1ccccc1)N(C)C(=O)[C@H](N)Cc1ccc(O)cc1)C(=O)N1CCC[C@H]1C(=O)N[C@H](CO)C(=O)N[C@@H](CCC(N)=O)C(=O)N[C@@H](Cc1ccccc1)C(=O)N[C@H](C)C(=O)N1Cc2ccccc2C[C@H]1C(=O)N[C@@H](CO)C(=O)O [YW-104, (D-Tyr)-(NMe-Phe)-Leu-Pro-(D-Ser)-Gln-Phe-(D-Ala)-Tic-Ser-OH] (H-[dY][NMeF]LP[dS]QF[dA][Tic]S-OH)	80 nM	
CC(C)C[C@@H](C(=O)N1CCC[C@H]1C(=O)N[C@H](CO)C(=O)N[C@@H](CCC(N)=O)C(=O)N[C@@H](Cc1cccc2ccccc12)C(=O)N[C@H](C)C(=O)N1Cc2ccccc2C[C@H]1C(=O)N[C@@H](CO)C(=O)O)N(C)C(=O)[C@H](Cc1ccccc1)NC(=O)[C@H](N)Cc1ccc(O)cc1 [YW-165, (D-Tyr)-Phe-(NMe-Leu)-Pro-(D-Ser)-Gln-1Nal-(D-Ala)-Tic-Ser-OH] (H-[dY]F[NMeL]P[dS]Q[1Nal][dA][Tic]S-OH)		1.5 nM

Further lines, with some results ahead:

EC50 [1]	SMILES	EC50
0.8 nM	CC(C)C[C@@H](C(=O)N1CCC[C@H]1C(=O)N[C@H](CO)C(=O)N[C@@H](CCC(N)=O)C(=O)N[C@@H](Cc1ccccc1)C(=O)N[C@H](C)C(=O)N1Cc2ccccc2C[C@H]1C(=O)N[C@@H](CO)C(=O)O)N(C)C(=O)[C@H](Cc1ccccc1)NC(=O)[C@@H](Cc1ccc(O)cc1)NC(=O)c1ccc(C(F)(F)F)cc1 [YW-195, 4-(trifluoromethyl)benzoyl-(D-Tyr)-Phe-(NMe-Leu)-Pro-(D-Ser)-Gln-Phe-(D-Ala)-Tic-Ser] ({Benzoyl(4-CF3)}-[dY]F[NMeL]P[dS]QF[dA][Tic]S-OH)	
1.4 nM	CN[C@H](Cc1ccc(O)cc1)C(=O)N[C@@H](Cc1ccccc1)C(=O)N(C)[C@@H](CC(C)C)C(=O)N1CCC[C@H]1C(=O)N[C@H](CO)C(=O)N[C@@H](CCC(N)=O)C(=O)N[C@@H](Cc1ccc2ccccc2c1)C(=O)N[C@H](C)C(=O)N1Cc2ccccc2C[C@H]1C(=O)N(C)[C@@H](CO)C(=O)O [YW-146, (D-NMe-Tyr)-Phe-(NMe-Leu)-Pro-(D-Ser)-Gln-2Nal-(D-Ala)-Tic-(NMe-Ser)-OH] (H-[dNMeY]F[NMeL]P[dS]Q[2Nal][dA][Tic][NMeS]-OH)	
2.2 nM	CCCCCCCCCCCC(=O)NCCOCCOCCOCCOCCOCCOCCOCCOCCC(=O)NCCC(=O)NCCC(=O)N(C)[C@H](Cc1ccc(O)cc1)C(=O)N[C@@H](Cc1ccccc1)C(=O)N(C)[C@@H](CC(C)C)C(=O)N1CCC[C@H]1C(=O)N[C@H](CO)C(=O)N[C@@H](CCC(N)=O)C(=O)N[C@@H](Cc1ccc2ccccc2c1)C(=O)N[C@H](C)C(=O)N1Cc2ccccc2C[C@H]1C(=O)N(C)[C@@H](CO)C(=O)O [YW-181, Dodecanoyl-PEG8-βAla-βAla-(NMe-D-Tyr)-Phe-(NMe-Leu)-Pro-(D-Ser)-Gln-2Nal-(D-Ala)-Tic-(NMe-Ser)] ({Lauroyl-PEG8-βAla-βAla}-[dNMeY]F[NMeL]P[dS]Q[2Nal][dA][Tic][NMeS]-OH)	
5 nM	CC(C)C[C@@H](C(=O)N1CCC[C@H]1C(=O)N[C@H](CO)C(=O)N[C@@H](CCC(N)=O)C(=O)N[C@@H](Cc1ccccc1)C(=O)N[C@H](C)C(=O)N1Cc2ccccc2C[C@H]1C(=O)N(C)[C@@H](CO)C(=O)O)N(C)C(=O)[C@H](Cc1ccccc1)NC(=O)[C@H](N)Cc1ccc(O)cc1 [YW-166, (D-Tyr)-Phe-(NMe-Leu)-Pro-(D-Ser)-Gln-Phe-(D-Ala)-Tic-(NMe-Ser)-OH] (H-[dY]F[NMeL]P[dS]QF[dA][Tic][NMeS]-OH)	
8.6 nM	CC(C)C[C@H](NC(=O)[C@H](Cc1ccccc1)NC(=O)[C@H](N)Cc1ccc(O)cc1)C(=O)N1C[C@H](c2ccccc2)C[C@H]1C(=O)N[C@H](CO)C(=O)N[C@@H](CCC(N)=O)C(=O)N[C@@H](Cc1ccccc1)C(=O)N[C@H](C)C(=O)N1Cc2ccccc2C[C@H]1C(=O)N[C@@H](CO)C(=O)O [YW-113, (D-Tyr)-Phe-Leu-Pro(4-Ph)-(D-Ser)-Gln-Phe-(D-Ala)-Tic-Ser-OH] (H-[dY]FL[Pro(trans-4-Ph)][dS]QF[dA][Tic]S-OH)	
